# Experimental data taken from a melting point compilation (Tetko et al.; mined from patent text by program, amines drawn as free bases though some values may be those of a salt).
row,SMILES,melting point [°C]
1,COC(=O)COc1ccc2cc(-c3cnc(Cc4ccc5ccccc5c4)o3)ccc2c1,147 to 149
2,COC(=O)CCC1=C(C)C2=NC1(CCC(=O)OC)C(C)C1(CCC#N)NC(C)(C=C3C=CC(=N3)C=c3ccc([nH]3)=C2)C(CCC#N)=C1C (stereo not given),201 to 205
3,N#Cc1ccc(C(=O)c2ccccc2)s1,85 to 89
4,COc1cccc(C)c1N(C(C)=O)C(C)=O,116 to 119
5,O=C(O)CNC(=O)n1cc(C(=O)c2ccn3c2CSC3c2cccnc2)c2ccc(-c3ccc(F)cc3)cc21 (stereo not given),255
6,CCOc1cc2oc(=O)c3c(c2cc1OCC)CCN(CC(C)=O)C3,146 to 148
7,CC1(C)CC(=O)C2C(=NC3=C(C(=O)CC(C)(C)C3)C2c2ccc(F)c(C#N)c2)C1 (stereo not given),274 to 275
8,CN(c1cccc2cc(C(=O)NCC(C)(C#N)SCc3ccccc3)[nH]c12)S(=O)(=O)c1cccs1 (stereo not given),181 to 182
9,CC1(C)C(=O)N([Si](C)(C)C)C(=O)N1[Si](C)(C)C,46 to 49
10,CNC(=O)[C@@H](NC(=O)[C@@H](CC(=O)OCc1ccccc1)n1ccc(-c2ccc(C#N)cc2)c1)C(C)(C)C,102 to 104
11,CON1C(=O)CC2(CCN(CNC(=O)c3ccccc3O)CC2)C1=O,96 to 99
12,Cc1cc(C(=O)O)ccc1Sc1cc2c(cc1C)C(C)(C)CCC2(C)C,217 to 218
13,CNc1cccc(Cl)n1,63.5 to 64.5
14,O=CC(=Cc1ccc(OC(=O)c2ccc(Br)cc2)cc1)C(C=O)=Cc1ccc(OC(=O)c2ccc(Br)cc2)cc1,223 to 225
15,CC(C)(C)OC(=O)n1cc(I)c2ccncc21,68 to 72
16,CCCCc1nnc2n1-c1sc3c(c1C(c1ccccc1Cl)=NC2)CCNC3,224
17,CCN(CC)c1nc(C(C)(C)C)nn1-c1c([N+](=O)[O-])cc(C(F)(F)F)cc1[N+](=O)[O-],64 to 65
18,CC1(C)C(=O)Nc2cc3c(cc21)OC(O)N3 (stereo not given),297 to 299
19,COc1ccc(Cl)nc1C(N)=O,223 to 224
20,COc1cc2c(cc1C(F)(F)F)N(C(=O)Nc1cncc(Br)c1)CC2,220 to 222
21,O=C(O)c1ccc(N2CCSCC2)cc1,233 to 235

row,SMILES,melting point [°C]
1,CC[C@@H]1COC(=O)N1c1nc(-c2ccc(C#N)cc2)cs1,153 to 157
2,Cc1cc2c(N)c([N+](=O)[O-])cnc2s1,238 to 240
3,CC(C)CCNC(=O)c1ccccc1-c1ccccc1CNC(=O)c1ccccc1,147
4,CN(CCCCCC(=O)O)c1cnc(-c2ccccc2)c(-c2ccccc2)n1,159 to 160
5,O=C(C=Cc1ccc(N2CCCC2)nc1)N1CCc2c([nH]c3ccccc23)C1c1ccc2c(c1)CCO2 (stereo not given),201
6,O=C(O)c1ccccc1Nc1cccc(/C=C/c2nc3ccccc3s2)c1,146 to 150
7,O=C(NC(CO)C(=O)N1CCN(CCCc2ccccc2)CC1)OCc1ccccc1 (stereo not given),95 to 97
8,Oc1ncc(-c2ccc(C(F)(F)F)cc2)cn1,271 to 273
9,O=C(O)c1ccc(-c2ccc3cc(OCc4ccccc4)c(C45CC6CC(CC(C6)C4)C5)cc3c2)cc1,305 to 310
10,COn1nnc2cc3c(=O)n(C(C)Cn4ncnn4)nnc3cc2c1=O (stereo not given),227 to 231
11,O=C1CCC2CCCC(CCC(=O)OCc3ccccc3)C2N1 (stereo not given),101 to 102
12,O=C(O)[C@H](Oc1c(Br)cc(-c2c3ccccc3c(Br)c3sc4ccccc4c23)cc1Br)c1ccccc1,135 to 137
13,CCOC(=O)C(C#N)=CC=CN(C)C,134 to 135
14,CC(C)(C)OC(=O)[C@H]1CC[C@@H](c2ccccc2)N1C(=O)CNC(=O)Nc1cccc(CO)c1 (racemic),168
15,CCCCCCCCCCCCCCOc1cc(OCCCCCCc2cccc(OCc3ccccc3)c2OCc2ccccc2)cc(C(=O)OC)c1,56 to 58
16,CCCCCCCCCCCCc1ccccc1C(SC(CC(=O)O)C(=O)O)C(=O)O (stereo not given),85 to 89
17,CC(C)(C)c1cc(C(O)c2ccccc2)cc(C(C)(C)C)c1O (stereo not given),117 to 119
18,O=C(CCCCC1CCSS1)NC(Cc1c[nH]cn1)C(=O)O (stereo not given),122 to 126
19,COC(=O)c1nc(CN=[N+]=[N-])n2c1CN=C(c1ccccc1Cl)c1cc(Cl)ccc1-2,187 to 189
20,NC(=O)c1cc([N+](=O)[O-])cc([N+](=O)[O-])c1Cl,181 to 183
21,CS(=O)(=O)OCCc1ccc(NC(=O)OCc2ccccc2)cc1CCOS(C)(=O)=O,58 to 60

row,SMILES,melting point [°C]
1,CN(C)c1ccc(C=CC(=O)c2ccc(OCCO)cc2)cc1,127 to 128
2,CNCCOc1ccc2ccc(NC(=O)c3ccc(OC)cc3)nc2n1,146
3,NC1=c2c3c(ccc2=CCS1)CCCN3,214 to 216
4,O=C(O)C(Cl)(Cl)CCCCCCCCCCBr,49 to 51
5,COc1ccc([N+](=O)[O-])c(C(C)=O)c1OC,64 to 66
6,O=C1NC(=O)N2c3ccc(Cl)cc3[C@H]3CCN4CCC[C@H]1[C@H]4[C@H]32 (racemic),243
7,COC(=O)c1ccc(C(=O)Nc2ccc3c(c2)C(C)(C)CCC3(C)C)cc1,211
8,CCN(CC)C(=O)COC(=O)c1cc(S(N)(=O)=O)c(Cl)cc1NCc1ccco1,135 to 136
9,CNCCOc1ccc(C(=C(CCO)c2ccccc2)c2ccccc2)cc1,134 to 139
10,CC1(C)OC[C@H](COc2ccc(C(=O)c3ccc([N+](=O)[O-])cc3)cc2)O1,92 to 93
11,CCOC(C)(C)C(=O)O[C@H]1C[C@H](O)C=C2C=C[C@H](C)[C@H](CC[C@@H]3C[C@@H](O)CC(=O)O3)[C@H]21,132
12,COC(=O)C1CCCc2c(noc2-c2ccc(Cl)cc2)C1 (stereo not given),94 to 95
13,CCCCCCCCCCCCCCSc1ccc(Cl)c(N)c1,60.5 to 61.5
14,CSc1ccc(N2CCN(c3c(C)c(C)c4c(c3C)CC(C)(C)O4)CC2)cc1,211 to 213
15,Cc1cc(I)ccc1-n1c(C(F)(F)F)nn(C)c1=S,104 to 107
16,CC(=O)c1ccc2c(c1)C(C)(C)CC(=O)N2C,75 to 77
17,CS(=O)(=O)NCCN1CCC(CO)CC1,81 to 82
18,CC(c1ccccc1)C(Br)C(=O)c1ccccc1 (stereo not given),69 to 71
19,CCCCCCCCCCCCn1sncc1=O,68 to 70

# More lines, now with the values ahead:
row,melting point [°C],SMILES
1,203 to 204,Cc1nc2c(s1)-c1nc(N(C)c3cccc([N+](=O)[O-])c3)ncc1CC2
2,206 to 209,O=C(Nc1ccc2c3c(oc2c1)CCC(O)C3O)c1c(Cl)cccc1Cl (stereo not given)
3,242 to 245,N#Cc1[nH]c(=O)n(-c2ccc(Cl)cc2)c1C#N
4,225 to 228,Cc1nc2c(N)nc3ccccc3c2n1CCCS(C)(=O)=O
5,157 to 158,Cc1ccccc1COc1cccnc1NC(=N)Nc1ccccc1
6,136 to 138,COc1ccc(S(=O)(=O)Nc2onc(C)c2Br)cc1OC
7,198 to 200,CCOC(=O)c1nnc2ccc(-c3ccco3)cc2c1O
8,172 to 174,Cc1ncccc1Cn1nnnc1-c1cc(Cl)ccc1Cl
9,177 to 178,OCc1cc(C=CCN2Cc3ccccc3C2)ccc1O
10,197 to 199,O=c1cc(-c2ccc(OCCCCl)cc2)cn[nH]1
11,225,O=C(NCc1ccc(F)cc1)c1nc2n(c(=O)c1O)CCN2Cc1ccccc1
12,210,Cc1cccc(N2CCN(c3ccc(=O)[nH]n3)CC2)c1
13,156 to 157,c1ccc(Nc2nsc3nc4ccccc4n23)nc1
14,136 to 138,CCc1cc(C(=O)c2ccccc2Cl)c(-n2c(CC)nnc2CNC(=O)c2ccc(Cl)c(Cl)c2)s1
15,291 to 294,CC(C)(C)NC1=NS(=O)(=O)c2ccc(Cl)cc2N1
16,194 to 195,Cn1cc2c3c(cccc31)C(=O)NCC2
17,70 to 71,Cc1ccc2nc(-c3ccccc3Br)ncc2c1
18,185 to 188,Nc1cccc(-c2ccc(C3CCNC3=O)cc2F)n1 (stereo not given)
19,192 to 193,FC(F)c1nc2ccccc2n1-c1nc(NCc2ccccn2)nc(N2CCOCC2)n1
20,43 to 45,CCOc1ccc(Nc2nc(NCc3ccco3)nc(Nc3ccc(O)cc3)n2)cc1

row,melting point [°C],SMILES
1,343 to 346,O=c1[nH]c2ncc(-c3ccc4[nH]ccc4c3)nc2n1CC1CCCCC1
2,130 to 131,FC(F)(F)c1cccc(-c2cnn(-c3cccnc3)c2)n1
3,> 220,O=c1ccc(S(=O)(=O)n2cc(Cl)c3ccccc32)n[nH]1
4,140 to 143,O=C1C=CC(O)(c2nc3ccccc3s2)C(Cl)=C1 (stereo not given)
5,102 to 103,Cc1noc(-c2cccc(I)c2)n1
6,180,Cc1ccccc1-c1cc(=O)c2cc(O)ccc2o1
7,176 to 179,Cc1cccc2c1ncn2Cc1oc2ccc(Br)cc2c(=O)c1-c1ccccc1
8,159 to 160,O=c1ccoc(C(O)c2ccc3ccccc3c2)c1OCc1ccccc1 (stereo not given)
9,131 to 132,Fc1cc2nn(CCC#Cc3ccccn3)nc2cc1F
10,163 to 165,Cn1cc(C=O)c2ccc3oc4ccccc4c3c21
11,218 to 220,CC(C)n1nc(-c2c(-c3ccccc3)nn3ccc(Oc4ccncc4)cc23)ccc1=O
12,169 to 170,CC(C)c1nc(-c2ncn3c2CN(C(=O)N2CCCC2)c2c(F)cccc2-3)no1
13,164 to 166,CC(C)n1nc(-c2c(NCCN(C)C)nc(N)nc2-c2ccccc2)ccc1=O
14,235 to 237,Cc1ccc2c(c1)C=Cc1sc(C)nc1C2c1cn(C)c(=O)[nH]c1=S (stereo not given)
15,255 to 257,O=C(Nc1cccc(S(=O)(=O)NC2(CO)CCCC2)c1)c1cnn2c(C3CC3)cc(-c3ccc(Cl)cc3)nc12
16,108 to 109,CC(Cc1cccc(Cl)c1)(NC=O)c1ccccc1 (stereo not given)
17,222 to 223,Oc1ccc(-c2ncc3ncc(-c4ccc(S)cc4)cc3n2)cc1
18,195 to 196,Cc1ccc(C(=O)NCCO)cc1-n1c(C)cc(OCc2ccccc2CNC(=O)Nc2cc(C(C)(C)C)nn2-c2ccc(O)c(Cl)c2)c(Cl)c1=O
19,208 to 210,Cn1cc(CS(C)=O)c(=O)c2ccc(C(F)(F)F)cc21 (stereo not given)
